Target: DDX41 (Homo sapiens, UniProt Q9UJV9)
Conditions: labelled compound ([γ-32P]ATP)

Sequence of DDX41 (Q9UJV9 whole entry): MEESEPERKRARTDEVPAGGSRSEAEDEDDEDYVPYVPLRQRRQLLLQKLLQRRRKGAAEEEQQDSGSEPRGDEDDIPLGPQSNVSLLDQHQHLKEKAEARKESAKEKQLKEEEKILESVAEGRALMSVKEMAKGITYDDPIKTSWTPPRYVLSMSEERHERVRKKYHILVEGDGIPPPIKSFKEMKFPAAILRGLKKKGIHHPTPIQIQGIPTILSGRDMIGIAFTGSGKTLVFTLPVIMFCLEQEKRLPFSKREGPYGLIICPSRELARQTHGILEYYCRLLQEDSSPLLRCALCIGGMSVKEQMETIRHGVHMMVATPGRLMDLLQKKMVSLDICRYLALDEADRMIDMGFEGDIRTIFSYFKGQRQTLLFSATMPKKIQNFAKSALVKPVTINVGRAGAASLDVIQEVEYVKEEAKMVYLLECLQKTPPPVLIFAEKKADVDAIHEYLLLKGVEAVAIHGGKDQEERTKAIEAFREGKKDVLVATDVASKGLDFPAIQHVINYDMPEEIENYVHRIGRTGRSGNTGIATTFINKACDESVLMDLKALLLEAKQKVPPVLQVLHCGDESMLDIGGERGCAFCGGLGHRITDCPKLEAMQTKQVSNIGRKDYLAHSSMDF

Nc1ncnc2c1ncn2[C@@H]1O[C@H](COP(=O)(O)OP(=O)(O)OP(=O)(O)O)[C@@H](O)[C@H]1O [ATP]
filter binding (dot blot); ATP-agarose pull-down: we incubated the same amount of WT or R525H proteins with ATP agarose

Source: article PMC9205463 (Cell reports, 2022)
